Test results as given in PubChem BioAssay AID1963981 (Molecular Pharmacology Branch, DTP, NCI, 2024).

System: 354836-022-R-J1-PDC multicell spheroid viability
Assay: Anticancer human tumor 354836-022-R-J1-PDC patient-derived head and neck squamous cell carcinoma cell line growth inhibition [PI3K]
Details: for IC50: curve of first compound; for viability, T/C: stronger effect = lower value; active means viability on the fitted dose curve at most 10% of control; inactive means the rest
Summary of the method: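 Combination activity was assessed by viability in multicellular tumor spheroids carrying HUVEC and MSC components. Agents were tested with PI3K inhibitors from a Cmax-based top dose (or 10 microM) downward in half-log increments.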
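Further: spheroids exposed to agents for seven days before the viability read.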

CNC(=O)c1ccc(N2C(=S)N(c3ccc(C#N)c(C(F)(F)F)c3)C(=O)C2(C)C)cc1F + COc1c(OCCCN2CCOCC2)ccc2c3n(c(=NC(=O)c4cnc(N)nc4)nc12)CCN3
active: viability, T/C (second compound 1 µM, first compound 0.0316 µM) 1.3% | viability, T/C (second compound 1 µM, first compound 0.1 µM) 1.27% | viability, T/C (second compound 1 µM, first compound 0.316 µM) 1.65% | viability, T/C (second compound 1 µM, first compound 1 µM) 1.63% | viability, T/C (second compound 1 µM, first compound 3.16 µM) 1.96% | viability, T/C (second compound 1 µM, first compound 10 µM) 0.99%
> 10 µM: IC50 (second compound 0.00316 µM) | IC50 (second compound 0.01 µM) | IC50 (second compound 0.0316 µM)
< 0.0316 µM: IC50 (second compound 0.1 µM) | IC50 (second compound 0.316 µM) | IC50 (second compound 1 µM)
inactive: viability, T/C (second compound 0.00316 µM, first compound 0.0316 µM) 93.6% | viability, T/C (second compound 0.00316 µM, first compound 0.1 µM) 102% | viability, T/C (second compound 0.00316 µM, first compound 0.316 µM) 101% | viability, T/C (second compound 0.00316 µM, first compound 1 µM) 107% | viability, T/C (second compound 0.00316 µM, first compound 3.16 µM) 124% | viability, T/C (second compound 0.00316 µM, first compound 10 µM) 93.2% | viability, T/C (second compound 0.01 µM, first compound 0.0316 µM) 97.3% | viability, T/C (second compound 0.01 µM, first compound 0.1 µM) 92.8% | viability, T/C (second compound 0.01 µM, first compound 0.316 µM) 92.7% | viability, T/C (second compound 0.01 µM, first compound 1 µM) 97.7% | viability, T/C (second compound 0.01 µM, first compound 3.16 µM) 102% | viability, T/C (second compound 0.01 µM, first compound 10 µM) 108% | viability, T/C (second compound 0.0316 µM, first compound 0.0316 µM) 78.1% | viability, T/C (second compound 0.0316 µM, first compound 0.1 µM) 80% | viability, T/C (second compound 0.0316 µM, first compound 0.316 µM) 81.8% | viability, T/C (second compound 0.0316 µM, first compound 1 µM) 83.7% | viability, T/C (second compound 0.0316 µM, first compound 3.16 µM) 80.4% | viability, T/C (second compound 0.0316 µM, first compound 10 µM) 77% | viability, T/C (second compound 0.1 µM, first compound 0.0316 µM) 47.8% | viability, T/C (second compound 0.1 µM, first compound 0.1 µM) 50.8% | viability, T/C (second compound 0.1 µM, first compound 0.316 µM) 57.1% | viability, T/C (second compound 0.1 µM, first compound 1 µM) 49.2% | viability, T/C (second compound 0.1 µM, first compound 3.16 µM) 58.4% | viability, T/C (second compound 0.1 µM, first compound 10 µM) 49.9% | viability, T/C (second compound 0.316 µM, first compound 0.0316 µM) 16.4% | viability, T/C (second compound 0.316 µM, first compound 0.1 µM) 18.1% | viability, T/C (second compound 0.316 µM, first compound 0.316 µM) 13.4% | viability, T/C (second compound 0.316 µM, first compound 1 µM) 10.8% | viability, T/C (second compound 0.316 µM, first compound 3.16 µM) 14.5% | viability, T/C (second compound 0.316 µM, first compound 10 µM) 12.6%

Cn1cnc2c(F)c(Nc3ccc(Br)cc3Cl)c(C(=O)NOCCO)cc21 + COc1c(OCCCN2CCOCC2)ccc2c3n(c(=NC(=O)c4cnc(N)nc4)nc12)CCN3
active: viability, T/C (second compound 0.316 µM, first compound 0.0949 µM) 11% | viability, T/C (second compound 0.316 µM, first compound 0.3 µM) 9.87% | viability, T/C (second compound 0.316 µM, first compound 0.949 µM) 5.57% | viability, T/C (second compound 0.316 µM, first compound 3 µM) 1.48% | viability, T/C (second compound 1 µM, first compound 0.00949 µM) 1.58% | viability, T/C (second compound 1 µM, first compound 0.03 µM) 1.2% | viability, T/C (second compound 1 µM, first compound 0.0949 µM) 1.03% | viability, T/C (second compound 1 µM, first compound 0.3 µM) 1.25% | viability, T/C (second compound 1 µM, first compound 0.949 µM) 0.64% | viability, T/C (second compound 1 µM, first compound 3 µM) 0.57%
1.86 µM: IC50 (second compound 0.0316 µM)
> 3 µM: IC50 (second compound 0.00316 µM) | IC50 (second compound 0.01 µM)
< 0.00949 µM: IC50 (second compound 0.1 µM) | IC50 (second compound 0.316 µM) | IC50 (second compound 1 µM)
inactive: viability, T/C (second compound 0.00316 µM, first compound 0.00949 µM) 107% | viability, T/C (second compound 0.00316 µM, first compound 0.03 µM) 86.2% | viability, T/C (second compound 0.00316 µM, first compound 0.0949 µM) 89.4% | viability, T/C (second compound 0.00316 µM, first compound 0.3 µM) 96.6% | viability, T/C (second compound 0.00316 µM, first compound 0.949 µM) 75.5% | viability, T/C (second compound 0.00316 µM, first compound 3 µM) 58% | viability, T/C (second compound 0.01 µM, first compound 0.00949 µM) 83.3% | viability, T/C (second compound 0.01 µM, first compound 0.03 µM) 84.6% | viability, T/C (second compound 0.01 µM, first compound 0.0949 µM) 78.3% | viability, T/C (second compound 0.01 µM, first compound 0.3 µM) 89.2% | viability, T/C (second compound 0.01 µM, first compound 0.949 µM) 75.4% | viability, T/C (second compound 0.01 µM, first compound 3 µM) 60.7% | viability, T/C (second compound 0.0316 µM, first compound 0.00949 µM) 81.2% | viability, T/C (second compound 0.0316 µM, first compound 0.03 µM) 80% | viability, T/C (second compound 0.0316 µM, first compound 0.0949 µM) 67.8% | viability, T/C (second compound 0.0316 µM, first compound 0.3 µM) 66.9% | viability, T/C (second compound 0.0316 µM, first compound 0.949 µM) 66.3% | viability, T/C (second compound 0.0316 µM, first compound 3 µM) 41% | viability, T/C (second compound 0.1 µM, first compound 0.00949 µM) 43.8% | viability, T/C (second compound 0.1 µM, first compound 0.03 µM) 48.6% | viability, T/C (second compound 0.1 µM, first compound 0.0949 µM) 38.3% | viability, T/C (second compound 0.1 µM, first compound 0.3 µM) 41.9% | viability, T/C (second compound 0.1 µM, first compound 0.949 µM) 31.2% | viability, T/C (second compound 0.1 µM, first compound 3 µM) 15.2% | viability, T/C (second compound 0.316 µM, first compound 0.00949 µM) 12.7% | viability, T/C (second compound 0.316 µM, first compound 0.03 µM) 9.02%
